For assay [1], the target named is T1, T/M89^2.64 variant apelin receptor (Homo sapiens, UniProt P35414, T89M).
T1 construct: expressed in transfected cells; host or cells: CHO-K1, transient, pcDNA3.1
T1 sequence (P35414 1-380 T89M): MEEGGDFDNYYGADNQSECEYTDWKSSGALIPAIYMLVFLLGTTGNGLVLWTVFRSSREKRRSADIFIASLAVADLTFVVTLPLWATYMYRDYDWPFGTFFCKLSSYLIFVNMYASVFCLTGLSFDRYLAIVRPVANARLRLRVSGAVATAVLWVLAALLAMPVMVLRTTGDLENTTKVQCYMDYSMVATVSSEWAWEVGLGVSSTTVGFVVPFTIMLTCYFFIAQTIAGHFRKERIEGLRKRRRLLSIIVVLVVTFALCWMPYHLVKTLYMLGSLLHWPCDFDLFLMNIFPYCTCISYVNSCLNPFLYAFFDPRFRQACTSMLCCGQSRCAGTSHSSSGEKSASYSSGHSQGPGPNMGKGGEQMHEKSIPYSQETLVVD
Kind of assay: Saturation radioligand binding, CHO-K1 membranes, T/M89^2.64. The following applies: mean ± SD, n = 3. How it is done:
(§1) The radiolabel has a specific activity of 2200 Ci/mmol. Plastic-ware used in radioligand binding experiments was coated with Sigmacote, a siliconising reagent that forms a covalent film to reduce sticking of the radiolabel.
(§2) Membrane protein preparations were made by harvesting CHO-K1 cells transiently transfected with wild-type or variant apelin receptor construct into tubes. Tubes were spun at 1000 xg for 10 min at 4 °C to pellet cells, before resuspending and triturating in ice-cold TRIS wash buffer (50 mM TRIS-HCl in deionised water, pH balanced to 7.4 at room temperature) to induce complete hypotonic lysis of cells. Cells were spun a second time at 21,000 × g for 20 min at 4 °C, to obtain a crude membrane fraction. Supernatant was discarded and membrane preparations resuspended in TRIS wash buffer. Cell membrane preparations were stored at –70 °C until use in experiments. Protein concentration of cell membrane preparations was determined using a DC Protein Assay (Bio-Rad), as per the manufacturer’s instructions.
(§3) For binding experiments, membrane preparations were diluted in binding buffer (50 mM TRIS-HCl and 5 mM MgCl2, balanced to pH 7.4 at room temperature) to give a final protein concentration of 1 mg/mL. […] At the end-point, samples were spun in a centrifuge at 20,000 × g for 10 min at 4 °C to terminate equilibrium. […]

In assay [2] the target is apelin receptor, homogenised human left ventricle. The following applies: previously determined by saturation analysis in homogenised human left ventricle; cited from earlier work. The protocol: Heart Homogenate. Ethically approved (Research Ethics Committee 05/Q104/142) surgical samples of human left ventricle tissue were obtained with informed consent at the time of operation from Royal Papworth Hospital Tissue Bank and stored at -80°C. Tissues were homogenised using a Polytron Homogenizer (Thomas Scientific), in buff ...

Assay [3] relates to untransfected CHO-K1 cells. Description: Saturation radioligand binding, untransfected CHO-K1 membranes.
The subject of assay [4] is T/X227^5.64 variant apelin receptor. Kind of assay: Saturation radioligand binding, CHO-K1 membranes, T/X227^5.64. Details: species or system human. The protocol: as §1, §2
(§4) For binding experiments, membrane preparations were diluted in binding buffer (50 mM TRIS-HCl and 5 mM MgCl2, balanced to pH 7.4 at room temperature) to give a final protein concentration of 1 mg/mL. […] At the end-point, samples were spun in a centrifuge at 20,000 × g for 10 min at 4 °C to terminate equilibrium. Supernatant was aspirated, and pellets were resuspended and triturated in 500 μL ice-cold wash buffer, over ice. Samples were spun a second time at 20,000 × g for 10 min at 4 °C, before aspiration of the supernatant. Radioactivity in pellets was counted using a Cobra II model 5003 gamma counter (Packard).
(§5) Saturation binding data were analysed using the EBDA and LIGAND components of the KELL (Kinetic, EBDA, Ligand, Lowry) software package (Biosoft)[58] to generate receptor affinity (KD) and receptor density (Bmax) values. […] Saturation data were presented using the nonlinear one site-specific binding with Hill slope model fitted by GraphPad Prism version 6.07 for Windows (GraphPad Software).

The target of assay [5] is T2, wild-type apelin receptor (Homo sapiens, UniProt P35414).
T2 construct: expressed in transfected cells; host or cells: CHO-K1 (ECACC 85051005), transient, pcDNA3.1
T2 sequence (P35414 1-380): T1 sequence (P35414 1-380 T89M) with M89T
Kind of assay: Saturation radioligand binding, CHO-K1 membranes, wild-type. The following applies: WT; mean ± SD, n = 3. How it is done:
as §1, §2, §3

For assay [6], the system named is R/H168^4.64 apelin receptor, hESC. Description: Saturation radioligand binding, R/H168^4.64 hESC membranes. Details: species or system human. The protocol: as §1, §2, §3
For assay [7], the system named is R/H168^4.64 apelin receptor, hESC-CM. Description: Saturation radioligand binding, R/H168^4.64 hESC-CM membranes. Details: species or system human. How it is done:
as §1, §2, §3

The target in assay [8] is T3, V/L38^1.42 variant apelin receptor (Homo sapiens, UniProt P35414, V38L).
T3 construct: expressed in transfected cells; host or cells: CHO-K1, transient, pcDNA3.1
T3 sequence (P35414 1-380 V38L): T1 sequence (P35414 1-380 T89M) with V38L, M89T
Description: Saturation radioligand binding, CHO-K1 membranes, V/L38^1.42. How it is done:
as §1, §2, §3

Assay [9] has as its system G/X45^1.49 variant apelin receptor. Description: Saturation radioligand binding, CHO-K1 membranes, G/X45^1.49. Details: species or system human. How it is done: as §1, §2, §4, §5
Assay [10] concerns the target T4, R/H168^4.64 variant apelin receptor (Homo sapiens, UniProt P35414, R168H).
T4 construct: expressed in transfected cells; host or cells: CHO-K1, transient, pcDNA3.1
T4 sequence (P35414 1-380 R168H): T1 sequence (P35414 1-380 T89M) with M89T, R168H
Kind of assay: Saturation radioligand binding, CHO-K1 membranes, R/H168^4.64. The protocol:
as §1, §2, §3

The subject of assay [11] is T/X227^5.64 variant apelin receptor. Description: High content screening, fluorescent ligand binding in transfected CHO-K1 cells, T/X227^5.64. Details: species or system human. The following applies: 1 µM, 90 min, mean ± SD, n = 4 in triplicate. How it is done:
(§6) Cells were maintained at 37 °C, in humidified air containing 5% CO2.
(§7) High content screening was used to characterise apelin receptor variant expression, membrane localisation, and fluorescent ligand binding. CHO-K1 cells transiently transfected with wild-type or variant apelin receptor construct tagged C-terminally with eGFP were plated at ~10,000/well in CellCarrier-96 Ultra Plates (PerkinElmer). […] Fluorescent ligand was washed out with HBSS, and cells were fixed with 4% formaldehyde for ~3 min. […] After a final wash, cells were maintained in 100 µL HBSS.
(§8) Cells maintained in the 96-well plates were imaged on an Opera Phenix High Content Screening System (PerkinElmer), a highly sensitive, dual-camera spinning disk confocal fluorescent imaging platform, using a 40x/NA1.1 water immersion objective. […] Three fluorescent channels were used. […] For all channels, excitation laser intensity was set at 50% power, with a 50 ms exposure time. Additionally, each imaging field was imaged using bright-field and digital phase contrast (DPC). […]
(§9) Mean membrane fluorescence was then quantified for the green channel as an indication of membrane protein expression, and for the red channel as an indication of fluorescent ligand binding.

The subject of assay [12] is G/X45^1.49 variant apelin receptor. Description: High content screening, fluorescent ligand binding in transfected CHO-K1 cells, G/X45^1.49. Details: species or system human. The following applies: 1 µM, 90 min, mean ± SD, n = 4 in triplicate. The protocol: as §6, §7, §8, §9
[13] abbreviates: 90 min, room temperature, pH 7.4.

Changes are numbered by the printed parent chain. Where no end group is shown, it is not given here. 647 dye = not defined here

For `CCCC[C@H](NC(=O)[C@@H]1CCCN1C(=O)CNC(=O)[C@H](CCCCN)NC(=O)[C@H](Cc1c[nH]cn1)NC(=O)[C@H](CO)NC(=O)[C@H](CC(C)C)NC(=O)[C@H](CCCNC(=N)N)NC(=O)[C@@H]1CCCN1C(=O)[C@H](CCCNC(=N)N)NC(=O)[C@@H]1CCC(=O)N1)C(=O)N1CCC[C@H]1C(=O)N[C@@H](Cc1ccc(O)c(I)c1)C(=O)O` [[^125I]-apelin-13], the Bmax in assay [1] was 440.47 ± 38.36 fmol/mg; in [3] it was “NBD”; in assay [4] it was “NBD”; in assay [5], 236.80 ± 27.07 fmol/mg; in assay [8], “NBD”; in [9] it was “NBD”. Moreover, the Bmax result in assay [10] is listed as “NBD”. In addition, the “Hill slope (nH)” value in assay [1] is 1.55 ± 0.22; in [3], “NBD”; in [4] it was “NBD”; in assay [5] it was 1.26 ± 0.22; in assay [8], “NBD”; in assay [9], “NBD”. In addition, the “Hill slope (nH)” value in assay [10] is on record as “NBD”. Also, the dissociation constant (Kd) in assay [2] was 0.076 nM. For the same molecule, the KD entry in assay [3] (setting [13]), in [4] (setting [13]) and in assay [9] (setting [13]) was “NBD” throughout. Besides, the “[125I]-apelin-13 binding versus wild-type” value in assay [6] and in assay [7] was “significantly reduced” each time.

Take “ELA647: fluorescently labelled ELA peptide ({647 dye}-QRPVNLTMRRKLRKHNCLQRRCMPLHSRVPFP; ends and bridges not checked; UniProt P0DMC3 23-54, looked up)”: the “Mem. ELA647” value stood at 14.83 ± 7.02 % WT in assay [11] and 20.73 ± 12.55 % WT in [12].

One may read the Kd as the concentration at which binding is half-saturated.

(Values after article PMC11680790, “Structural and functional determination of peptide versus small molecule ligand binding at the apelin receptor” (Nature Communications, 2024).)
